PMC12724231, “APC24-7, a covalent combination of boronic acid and chelator moieties, restores β-lactam efficiency against metallo-β-lactamase-producers” (mSphere, 2025)
Where two headings read alike, the source gives them in different places.

What was measured:
Test in all cases: microbe, parasite or virus in culture
[1] = system: T1, Klebsiella pneumoniae KresCPE0353; set-up: species or system clinical isolates of E. coli and K. pneumoniae; Broth microdilution MIC (CLSI), cation-adjusted Mueller-Hinton broth, visual reading, antibiotic alone against clinical isolates; settings: Klebsiella pneumoniae, KRESCPE0353, antibiotic alone
T1 construct: KresCPE0353
Protocol: (§1) MICs for clinical isolates were determined in a broth microdilution assay according to Clinical and Laboratory Standards Institute (CLSI) ([75]), using cation-adjusted Mueller-Hinton broth (Thermo Fisher Scientific, Lenexa, USA). The direct colony suspension method was utilized by preparing an inoculum of an OD600 0.17, except for E. coli #36 in which 0.10 was used, which equated to a concentration of 10^8 colony-forming units (CFU) per mL. Inoculum controls were included for all assays ([76]). MICs for all clinical isolates were determined alone and in combination with inhibitors for all BLs tested, either using manually prepared plates of aztreonam, cefepime, ceftazidime, and amoxicillin or premade plates of meropenem (Sensititre), and all antibiotics tested at a twofold increasing concentration of 0.03–64 mg/L (Table 1; Table S3). Compound APC24-7 was tested at a fixed concentration of 14, 28, and 57 µM (8, 16, or 32 mg/L) with meropenem, and for all other BLs tested at the highest inhibitor concentration to be able to compare the efficiency of the BI/BLI combinations. Taniborbactam was tested at a fixed equimolar concentration (6.5, 13, and 26 mg/L) and only evaluated with meropenem. A minimum of 2–3 replicates was performed for all combinations. Assay plates were incubated at 37°C without shaking for 16–20 h, and the results were visually interpreted in accordance with EUCAST guidelines and clinical breakpoint table version 15.0 (www.eucast.org).

[2] = system: T2, Klebsiella pneumoniae KresCPE0372; set-up: species or system clinical isolates of E. coli and K. pneumoniae; Broth microdilution MIC (CLSI), cation-adjusted Mueller-Hinton broth, visual reading, antibiotic alone against clinical isolates; settings: Klebsiella pneumoniae, KRESCPE0372, antibiotic alone
T2 construct: KresCPE0372
Protocol: as §1

[3] = system: T3, Klebsiella pneumoniae BAA1705; set-up: species or system clinical isolates of E. coli and K. pneumoniae; Broth microdilution MIC (CLSI), cation-adjusted Mueller-Hinton broth, visual reading, antibiotic alone against clinical isolates; settings: Klebsiella pneumoniae, BAA1705, antibiotic alone
T3 construct: ATCC BAA-1705
Protocol: as §1

Escherichia coli #36 = system: T4, Escherichia coli #36; set-up: species or system clinical isolates of E. coli and K. pneumoniae; Broth microdilution MIC (CLSI), cation-adjusted Mueller-Hinton broth, visual reading, antibiotic alone against clinical isolates; settings: Escherichia coli, antibiotic alone
T4 construct: #36
Protocol: as §1

[4] = system: T5, Klebsiella pneumoniae K66-45; set-up: species or system clinical isolates of E. coli and K. pneumoniae; Broth microdilution MIC (CLSI), cation-adjusted Mueller-Hinton broth, visual reading, antibiotic alone against clinical isolates; settings: Klebsiella pneumoniae, K6645, antibiotic alone
T5 construct: K66-45
Protocol: as §1

Escherichia coli #29 = system: T6, Escherichia coli #29; set-up: species or system clinical isolates of E. coli and K. pneumoniae; Broth microdilution MIC (CLSI), cation-adjusted Mueller-Hinton broth, visual reading, antibiotic alone against clinical isolates; settings: Escherichia coli, antibiotic alone
T6 construct: #29
Protocol: as §1

[5] = system: T7, Klebsiella pneumoniae K46-62; set-up: species or system clinical isolates of E. coli and K. pneumoniae; Broth microdilution MIC (CLSI), cation-adjusted Mueller-Hinton broth, visual reading, antibiotic alone against clinical isolates; settings: Klebsiella pneumoniae, K4662, antibiotic alone
T7 construct: K46-62
Protocol: as §1

[6] = system: T8, Klebsiella pneumoniae BAA-2146; set-up: species or system clinical isolates of E. coli and K. pneumoniae; Broth microdilution MIC (CLSI), cation-adjusted Mueller-Hinton broth, visual reading, antibiotic alone against clinical isolates; settings: Klebsiella pneumoniae, BAA2146, antibiotic alone
T8 construct: ATCC BAA-2146
Protocol: as §1

[7] = system: T9, Klebsiella pneumoniae KresCPE0097; set-up: species or system clinical isolates of E. coli and K. pneumoniae; Broth microdilution MIC (CLSI), cation-adjusted Mueller-Hinton broth, visual reading, antibiotic alone against clinical isolates; settings: Klebsiella pneumoniae, KRESCPE0097, antibiotic alone
T9 construct: KresCPE0097
Protocol: as §1

Escherichia coli #22 = system: T10, Escherichia coli #22; set-up: species or system clinical isolates of E. coli and K. pneumoniae; Broth microdilution MIC (CLSI), cation-adjusted Mueller-Hinton broth, visual reading, antibiotic alone against clinical isolates; settings: Escherichia coli, antibiotic alone
T10 construct: #22
Protocol: as §1

[8] = system: T11, Escherichia coli BAA-2469; set-up: species or system clinical isolates of E. coli and K. pneumoniae; Broth microdilution MIC (CLSI), cation-adjusted Mueller-Hinton broth, visual reading, antibiotic alone against clinical isolates; settings: Escherichia coli, BAA2469, antibiotic alone
T11 construct: ATCC BAA-2469
Protocol: as §1

[9] = system: T12, Klebsiella pneumoniae KresCPE0367; set-up: species or system clinical isolates of E. coli and K. pneumoniae; Broth microdilution MIC (CLSI), cation-adjusted Mueller-Hinton broth, visual reading, antibiotic alone against clinical isolates; settings: Klebsiella pneumoniae, KRESCPE0367, antibiotic alone
T12 construct: KresCPE0367
Protocol: as §1

Escherichia coli MP32-64 = system: T13, Escherichia coli MP32-64; set-up: species or system E. coli E. cloni 10G; Microdilution MIC of inhibitor alone in LB, OD600 read-out, E. coli 10G without or with empty vector; settings: MP3264, inhibitor alone
T13 construct: MP32-64
Protocol: (§2) Susceptibility testing of isogenic E. coli E. cloni 10G (Table 2) was determined by both the microdilution assay. […] Overnight cultures were prepared in LB supplemented with 25 mg/L chloramphenicol at 37°C under shaking at 700 rpm. The overnight cultures were diluted in PBS to 10^6 CFU/ mL, followed by inoculation in LB to ~10^5 CFU in 384-well plates (VWR, Radnor, PA, USA). Plates were prepared with twofold increasing concentrations of meropenem and cefepime ([…], respectively) to a total inoculated volume of 100 µL Plates were incubated at 37°C without shaking for 19–21 h. OD600 was determined in a SpectraMax Plus plate reader (Molecular Devices).

Escherichia coli MP21-05 = system: T14, Escherichia coli MP21-05; set-up: species or system E. coli E. cloni 10G; Microdilution MIC of inhibitor alone in LB, OD600 read-out, E. coli 10G without or with empty vector; settings: MP2105, inhibitor alone
T14 construct: MP21-05
Protocol: as §2

[10] = read-out: MIC AZT (mg/L) / AZT alone
[11] = read-out: MIC APC24-7 (μM) / Taniborbactam**
[12] = read-out: MIC APC24-7 (μM) / APC148*
[13] = read-out: MIC FEP (mg/L) / FEP alone
[14] = read-out: MIC AMX (mg/L) / AMX alone

Measured: MIC

CC(C)(O/N=C(\C(=O)N[C@@H]1C(=O)N2C(C(=O)[O-])=C(C[n+]3ccccc3)CS[C@H]12)c1csc(N)n1)C(=O)O [ceftazidime]
> 64 mg/L: [1]; read-out: MIC | [2]; read-out: MIC | [3]; read-out: MIC | Escherichia coli #36; read-out: MIC | [4]; read-out: MIC | Escherichia coli #29; read-out: MIC | [5]; read-out: MIC | [6]; read-out: MIC | Escherichia coli #22; read-out: MIC | [8]; read-out: MIC | [9]; read-out: MIC
8 mg/L: [7]; read-out: MIC

C[C@H]1[C@H](NC(=O)/C(=N\OC(C)(C)C(=O)O)c2csc(N)n2)C(=O)N1S(=O)(=O)O [aztreonam]
16 mg/L: [8]; [10]
64 mg/L: [7]; [10]
> 64 mg/L: [1]; [10] | [3]; [10] | Escherichia coli #36; [10] | [4]; [10] | Escherichia coli #29; [10] | [5]; [10] | [6]; [10] | Escherichia coli #22; [10] | [9]; [10]
32 mg/L: [2]; [10]

NCCN[C@H]1CC[C@H](CC(=O)N[C@H]2Cc3cccc(C(=O)O)c3OB2O)CC1 [taniborbactam]
> 906 µM: Escherichia coli MP32-64; [11] | Escherichia coli MP21-05; [11]

CN(C[C@H](O)[C@@H](O)[C@H](O)[C@H](O)CO)C(=O)c1ccc(CN(Cc2ccccn2)Cc2ccccn2)nc1 [APC148]
> 906 µM: Escherichia coli MP32-64; [12] | Escherichia coli MP21-05; [12]

CO/N=C(\C(=O)N[C@@H]1C(=O)N2C(C(=O)[O-])=C(C[N+]3(C)CCCC3)CS[C@H]12)c1csc(N)n1 [cefepime]
16 mg/L: [7]; [13]
> 64 mg/L: [1]; [13] | [2]; [13] | [3]; [13] | Escherichia coli #36; [13] | [4]; [13] | Escherichia coli #29; [13] | [5]; [13] | [6]; [13] | Escherichia coli #22; [13] | [8]; [13] | [9]; [13]

CC1(C)S[C@@H]2[C@H](NC(=O)[C@H](N)c3ccc(O)cc3)C(=O)N2[C@H]1C(=O)O [amoxicillin]
> 64 mg/L: [1]; [14] | [2]; [14] | [3]; [14] | Escherichia coli #36; [14] | [4]; [14] | Escherichia coli #29; [14] | [5]; [14] | [6]; [14] | [7]; [14] | Escherichia coli #22; [14] | [8]; [14] | [9]; [14]
